This is an account of results in US11813306B2, “Cyclic tetramer compounds as proprotein convertase subtilisin/kexin type 9 (PCSK9) inhibitors for the treatment of metabolic disorders” (NOVARTIS AG, priority 2018, dated 2023).

Molecules are shown by their SMILES.

This test has as its target human PCSK9 (Homo sapiens, UniProt Q8NBP7). Kind of test: PCSK9 ligand binding assay (TR-FRET): interference with binding of human PCSK9 to human LDLR. The settings on record: for IC50: Human PCSK9 Alexa Fluor 647 / Human LDLR extracellular domain-Europium Kryptate; for Max % inhibition: efficacy (Amax), 100% = 1 uM unlabeled human PCSK9, 0% = DMSO. The method, boiled down: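 Read-out was TR-FRET ratio (665 nm over 615 nm, 330 nm excitation) between Alexa Fluor 647-human PCSK9 (16 nM added) and Europium Kryptate-human LDLR ectodomain (4 nM added). Compound and PCSK9 were mixed 30 min before LDLR, then incubated 2 h. Inhibition was normalised to DMSO and unlabelled-PCSK9 controls, giving IC50 and Amax.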
Background: In TR-FRET formats the signal depends on donor and acceptor labels being close together.

Chain of human PCSK9 (Q8NBP7 153-692): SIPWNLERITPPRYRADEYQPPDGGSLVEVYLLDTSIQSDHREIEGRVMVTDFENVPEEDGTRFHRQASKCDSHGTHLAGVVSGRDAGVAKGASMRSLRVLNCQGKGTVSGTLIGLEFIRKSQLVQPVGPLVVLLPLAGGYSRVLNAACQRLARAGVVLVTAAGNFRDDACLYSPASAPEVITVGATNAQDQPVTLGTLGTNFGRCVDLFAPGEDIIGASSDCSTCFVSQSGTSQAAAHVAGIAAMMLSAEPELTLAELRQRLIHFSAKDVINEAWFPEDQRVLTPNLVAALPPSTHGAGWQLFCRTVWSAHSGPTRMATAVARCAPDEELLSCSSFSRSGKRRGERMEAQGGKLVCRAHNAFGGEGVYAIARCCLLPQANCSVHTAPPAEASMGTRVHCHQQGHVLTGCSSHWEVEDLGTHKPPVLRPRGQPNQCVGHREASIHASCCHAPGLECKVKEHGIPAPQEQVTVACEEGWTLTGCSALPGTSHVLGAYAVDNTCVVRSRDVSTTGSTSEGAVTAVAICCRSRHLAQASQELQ
Chain of human PCSK9 (Q8NBP7 31-152 partner limits assumed): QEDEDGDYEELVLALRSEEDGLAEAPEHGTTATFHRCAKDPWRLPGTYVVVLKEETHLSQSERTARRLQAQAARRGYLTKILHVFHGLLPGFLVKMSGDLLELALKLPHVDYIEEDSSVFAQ

For orientation: IC50 means the concentration needed to halve the response being measured. A lower IC50 goes with inhibition by little substance. For the molecule `C[C@H]1C(=O)N[C@@H](CO)C(=O)N(C)[C@@]2(Cc3ccc(Cl)cc3)CCCN(C2)C(=O)[C@@H](CC(F)(F)F)CC(=O)N1Cc1c(F)cc(Cl)cc1Oc1ccc(-c2cnc(CN(C)C)n2C)cc1` [Compound 151, (3R, 7S, 10S, 13R)-6-(4-chloro-2-(4-(2-((dimethylamino)methyl)-1-methyl-1H-imidazol-5-yl)phenoxy)-6-fluorobenzyl)-13-(4-chlorobenzyl)-10-(hydroxymethyl)-7,12-dimethyl-3-(2,2,2-trifluoroethyl)-1,6,9,12-tetraazabicyclo[11.3.1]heptadecane-2,5,8,11-tetraone], the 50% inhibitory concentration (IC50) was 5.69 nM and the Max % inhibition was found to be 107.5%.

For `CCN(Cc1ncc(-c2ccc(Oc3cc(Cl)cc(F)c3CN3C(=O)C[C@@H](CC(F)(F)F)C(=O)N4CCC[C@@](Cc5ccc(Cl)cc5)(C4)NC(=O)[C@H](CO)NC(=O)[C@@H]3C)cc2)n1C)C1(C)CC1` [Compound 152, (3S, 7S, 10S, 13R)-6-(4-chloro-2-(4-(2-((ethyl(1-methylcyclopropyl)amino)methyl)-1-methyl-1H-imidazol-5-yl)phenoxy)-6-fluorobenzyl)-13-(4-chlorobenzyl)-10-(hydroxymethyl)-7-methyl-3-(2,2,2-trifluoroethyl)-1,6,9,12-tetraazabicyclo[11.3.1]heptadecane-2,5,8,11-tetraone], the half-inhibitory concentration (IC50) was 3.29 nM and the Max % inhibition is recorded as 103.4%.

As for `C[C@H]1C(=O)N[C@@H](CO)C(=O)N[C@@]2(Cc3ccc(Cl)cc3)CCCN(C2)C(=O)[C@H](CC2CC2)CC(=O)N1Cc1c(F)cc(Cl)cc1Oc1ccc(-c2cnc(CNC3CCC3)n2C)cc1` [Compound 153, (3R, 7S, 10S, 13R)-6-(4-chloro-2-(4-(2-((cyclobutylamino)methyl)-1-methyl-1H-imidazol-5-yl)phenoxy)-6-fluorobenzyl)-13-(4-chlorobenzyl)-3-(cyclopropylmethyl)-10-(hydroxymethyl)-7-methyl-1,6,9,12-tetraazabicyclo[11.3.1]heptadecane-2,5,8,11-tetraone], the half-maximal inhibitory concentration (IC50) is 0.93 nM and the Max % inhibition worked out at 100.4%.

`C[C@H]1C(=O)N[C@@H](CO)C(=O)N[C@@]2(Cc3ccc(Cl)cc3)CCCN(C2)C(=O)[C@H](CC2CC2)CC(=O)N1Cc1c(F)cc(Cl)cc1Oc1ccc(-c2cnc(CNC(C)(C)C)n2C)cc1` [Compound 154, (3R, 7S, 10S, 13R)-6-(2-(4-(2-((tert-butylamino)methyl)-1-methyl-1H-imidazol-5-yl)phenoxy)-4-chloro-6-fluorobenzyl)-13-(4-chlorobenzyl)-3-(cyclopropylmethyl)-10-(hydroxymethyl)-7-methyl-1,6,9,12-tetraazabicyclo[11.3.1]heptadecane-2,5,8,11-tetraone]: the IC50 was 0.71 nM and the Max % inhibition is on record as 104.6%.

Regarding `C[C@H]1C(=O)N[C@@H](CO)C(=O)N[C@@]2(Cc3ccc(Cl)cc3)CCCN(C2)C(=O)[C@H](CC2CCC2)CC(=O)N1Cc1c(F)cc(Cl)cc1Oc1ccc(-c2cnc(CN(C)C)n2C)cc1` [Compound 155, (3R, 7S, 10S, 13R)-6-(4-chloro-2-(4-(2-((dimethylamino)methyl)-1-methyl-1H-imidazol-5-yl)phenoxy)-6-fluorobenzyl)-13-(4-chlorobenzyl)-3-(cyclobutylmethyl)-10-(hydroxymethyl)-7-methyl-1,6,9,12-tetraazabicyclo[11.3.1]heptadecane-2,5,8,11-tetraone], the 50% inhibitory concentration (IC50) came to 0.95 nM and the Max % inhibition turned out to be 101.4%.

As for `COC[C@@H]1NC(=O)[C@H](C)N(Cc2c(F)cc(Cl)cc2Oc2ccc(-c3cnc(CN4CCC4)n3C)cc2)C(=O)C[C@@H](CC(F)(F)F)C(=O)N2CCC[C@@](Cc3ccc(Cl)cc3)(C2)N(C)C1=O` [Compound 157, (3S, 7S, 10S, 13R)-6-(2-(4-(2-(azetidin-1-ylmethyl)-1-methyl-1H-imidazol-5-yl)phenoxy)-4-chloro-6-fluorobenzyl)-13-(4-chlorobenzyl)-10-(methoxymethyl)-7,12-dimethyl-3-(2,2,2-trifluoroethyl)-1,6,9,12-tetraazabicyclo[11.3.1]heptadecane-2,5,8,11-tetraone], the half-inhibitory concentration (IC50) is 1.18 nM and the Max % inhibition is 104.7%.

For the molecule `COC[C@@H]1NC(=O)[C@H](C)N(Cc2c(F)cc(Cl)cc2Oc2ccc(-c3cnc(CN(C)C)n3C)cc2)C(=O)C[C@@H](CC(C)(F)F)C(=O)N2CCC[C@@](Cc3ccc(Cl)cc3)(C2)N(C)C1=O` [Compound 158, (3S, 7S, 10S, 13R)-6-(4-chloro-2-(4-(2-((dimethylamino)methyl)-1-methyl-1H-imidazol-5-yl)phenoxy)-6-fluorobenzyl)-13-(4-chlorobenzyl)-3-(2,2-difluoropropyl)-10-(methoxymethyl)-7,12-dimethyl-1,6,9,12-tetraazabicyclo[11.3.1]heptadecane-2,5,8,11-tetraone], the concentration for half-maximal inhibition (IC50) is 0.96 nM and the Max % inhibition amounted to 110.3%.

In the case of `COC[C@@H]1NC(=O)[C@H](C)N(Cc2c(F)cc(Cl)cc2Oc2ccc(-c3cnc(CN(C)C)n3C)cc2)C(=O)C[C@@H](Cc2ccccc2)C(=O)N2CCC[C@@](Cc3ccc(Cl)cc3)(C2)N(C)C1=O` [Compound 159, (3R, 7S, 10S, 13R)-3-benzyl-6-(4-chloro-2-(4-(2-((dimethylamino)methyl)-1-methyl-1H-imidazol-5-yl)phenoxy)-6-fluorobenzyl)-13-(4-chlorobenzyl)-10-(methoxymethyl)-7,12-dimethyl-1,6,9,12-tetraazabicyclo[11.3.1]heptadecane-2,5,8,11-tetraone], the half-inhibitory concentration (IC50) is 1.25 nM and the Max % inhibition stood at 114.0%.

On to `COC[C@@H]1NC(=O)[C@H](C)N(Cc2c(F)cc(Cl)cc2Oc2ccc(-c3cnc(CN(C)C4CCC4)n3C)cc2)C(=O)C[C@@H](CC(F)(F)F)C(=O)N2CCC[C@@](Cc3ccc(Cl)cc3)(C2)NC1=O` [Compound 160, (3S, 7S, 10S, 13R)-6-(4-chloro-2-(4-(2-((cyclobutyl(methyl)amino)methyl)-1-methyl-1H-imidazol-5-yl)phenoxy)-6-fluorobenzyl)-13-(4-chlorobenzyl)-10-(methoxymethyl)-7-methyl-3-(2,2,2-trifluoroethyl)-1,6,9,12-tetraazabicyclo[11.3.1]heptadecane-2,5,8,11-tetraone], for which the 50% inhibitory concentration (IC50) came out at 1.63 nM and the Max % inhibition was found to be 113.8%.

Take `C[C@H]1C(=O)N[C@@H](CO)C(=O)N[C@@]2(Cc3ccc(Cl)cc3)CCCN(C2)C(=O)[C@H](C2CC(F)(F)C2)CC(=O)N1Cc1c(F)cc(Cl)cc1Oc1ccc(-c2cnc(CN(C)C)n2C)cc1` [Compound 161, (3S, 7S, 10S, 13R)-6-(4-chloro-2-(4-(2-((dimethylamino)methyl)-1-methyl-1H-imidazol-5-yl)phenoxy)-6-fluorobenzyl)-13-(4-chlorobenzyl)-3-(3,3-difluorocyclobutyl)-10-(hydroxymethyl)-7-methyl-1,6,9,12-tetraazabicyclo[11.3.1]heptadecane-2,5,8,11-tetraone]: the IC50 was 0.33 nM and the Max % inhibition stood at 115.5%.

As for `C[C@H]1C(=O)N[C@@H](CO)C(=O)N[C@@]2(Cc3ccc(Cl)cc3)CCCN(C2)C(=O)[C@H](CC2CC2)CC(=O)N1Cc1ccc(Cl)cc1Oc1ccc(-c2cnc(CN(C)C(C)(C)C)n2C)cc1` [Compound 162, (3R, 7S, 10S, 13R)-6-(2-(4-(2-((tert-butyl(methyl)amino)methyl)-1-methyl-1H-imidazol-5-yl)phenoxy)-4-chlorobenzyl)-13-(4-chlorobenzyl)-3-(cyclopropylmethyl)-10-(hydroxymethyl)-7-methyl-1,6,9,12-tetraazabicyclo[11.3.1]heptadecane-2,5,8,11-tetraone], the concentration for half-maximal inhibition (IC50) stood at 1.3 nM and the Max % inhibition is 114.4%.

For the molecule `C[C@H]1C(=O)N[C@@H](CO)C(=O)N[C@@]2(Cc3ccc(Cl)cc3)CCCN(C2)C(=O)[C@H](CC2CC2)CC(=O)N1Cc1c(F)cc(Cl)cc1Oc1ccc(-c2cnc(CN(C)C(C)(C)C)n2C)cc1` [Compound 163, (3R, 7S, 10S, 13R)-6-(2-(4-(2-((tert-butyl(methyl)amino)methyl)-1-methyl-1H-imidazol-5-yl)phenoxy)-4-chloro-6-fluorobenzyl)-13-(4-chlorobenzyl)-3-(cyclopropylmethyl)-10-(hydroxymethyl)-7-methyl-1,6,9,12-tetraazabicyclo[11.3.1]heptadecane-2,5,8,11-tetraone], the IC50 stood at 1.21 nM and the Max % inhibition was 111.6%.

`C[C@H]1C(=O)N[C@@H](CO)C(=O)N(C)[C@@]2(Cc3ccc(Cl)cc3)CCCN(C2)C(=O)[C@H](C2CC(F)(F)C2)CC(=O)N1Cc1c(F)cc(Cl)cc1Oc1ccc(-c2cnc(CN(C)C)n2C)cc1` [Compound 164, (3S, 7S, 10S, 13R)-6-(4-chloro-2-(4-(2-((dimethylamino)methyl)-1-methyl-1H-imidazol-5-yl)phenoxy)-6-fluorobenzyl)-13-(4-chlorobenzyl)-3-(3,3-difluorocyclobutyl)-10-(hydroxymethyl)-7,12-dimethyl-1,6,9,12-tetraazabicyclo[11.3.1]heptadecane-2,5,8,11-tetraone]: the 50% inhibitory concentration (IC50) turned out to be 0.9 nM and the Max % inhibition was determined as 109.6%.

In the case of `COC[C@@H]1NC(=O)[C@H](C)N(Cc2c(F)cc(Cl)cc2Oc2ccc(-c3cnc(CNC(C)(C)C)n3C)cc2)C(=O)C[C@@H](C2CC(F)(F)C2)C(=O)N2CCC[C@@](Cc3ccc(Cl)cc3)(C2)N(C)C1=O` [Compound 165, (3S,7S,10S,13R)-6-(2-(4-(2-((tert-butylamino)methyl)-1-methyl-1H-imidazol-5-yl)phenoxy)-4-chloro-6-fluorobenzyl)-13-(4-chlorobenzyl)-3-(3,3-difluorocyclobutyl)-10-(methoxymethyl)-7,12-dimethyl-1,6,9,12-tetraazabicyclo[11.3.1]heptadecane-2,5,8,11-tetraone], the IC50 stood at 0.93 nM and the Max % inhibition is on record as 113.3%.
